Experimental data from ChEMBL document CHEMBL1157956, “Aegicerin, the first oleanane triterpene with wide-ranging antimycobacterial activity, isolated from Clavija procera” (J Nat Prod, 2006).
Values after ≈ are worked out from the molar mass of the structure shown.

Key:
[1] = Cytotoxicity against african green monkey Vero cells; assay type: cell-based; conditions: chlorocebus sabaeus
[2] = tested on: Mycobacterium tuberculosis; assay: Antimicrobial activity against drug-susceptible Mycobacterium tuberculosis isolate by alamar blue assay; assay type: functional
[3] = tested on: Mycobacterium tuberculosis; assay: Antimicrobial activity against Mycobacterium tuberculosis H37Rv by alamar blue assay; assay type: functional

Compound	GI50 [1]	MIC [2]	MIC [3]
CC1(C)CC[C@]23CO[C@@]4(CC[C@@H]5[C@@]6(C)CC[C@H](O)C(C)(C)[C@@H]6CC[C@@]5(C)[C@]4(C)CC2=O)[C@@H]3C1 [AEGICERIN]	> 40 µg/mL	1.6 µg/mL (≈ 3.5 µM)	3.1 µg/mL (≈ 6.79 µM)
NNC(=O)c1ccncc1 [ISONIAZID]		0.125 µg/mL (≈ 0.911 µM)	0.125 µg/mL (≈ 0.911 µM)
CC1(C)CC[C@]23CO[C@@]4(CC[C@@H]5[C@@]6(C)CC[C@H](O)C(C)(C)[C@@H]6CC[C@@]5(C)[C@]4(C)C[C@H]2O)[C@@H]3C1 [PROTOPRIMULAGENIN A]		200 µg/mL (≈ 436 µM)	200 µg/mL (≈ 436 µM)
CO[C@H]1/C=C/O[C@@]2(C)Oc3c(C)c(O)c4c(O)c(c(/C=N/N5CCN(C)CC5)c(O)c4c3C2=O)NC(=O)/C(C)=C\C=C\[C@H](C)[C@H](O)[C@@H](C)[C@@H](O)[C@@H](C)[C@H](OC(C)=O)[C@@H]1C [RIFAMPIN]		0.063 µg/mL (≈ 0.0766 µM)	0.063 µg/mL (≈ 0.0766 µM)
